Experimental data published in patent EP0844825B1, “INSECTICIDAL N-(SUBSTITUTED ARYLMETHYL)-4- BIS(SUBSTITUTED PHENYL OR PYRIDYL)METHYL]PIPERIDINES” (FMC CORPORATION, priority 1995, dated 1996).

System: tobacco budworm (Heliothis virescens [Fabricius])
Assay: Diet test: test chemical incorporated into artificial diet of tobacco budworm larvae, 5-day exposure
Format: in vivo
Conditions: for IC50 / LC50 / mortality at 100 µM / pest or weed control at 100 µM: Heliothis virescens, 120 h; for IC50: negative log of the concentration that provides 50% growth inhibition, by linear regression, read-out: pl50 (converted); for IC50 / LC50 / pest or weed control at 100 µM / Percent Growth Inhibition: 5 days, * = average of more than one test; for LC50: negative log of the concentration that provides 50% mortality, read-out: pLC50 (converted); for mortality at 100 µM / pest or weed control at 100 µM: feed or water; for mortality at 100 µM: read-out: Percent Mortality; for pest or weed control at 100 µM / Percent Growth Inhibition: rate of application 4 (negative log of molar concentration in the diet), second instar larvae, 25°C; for pest or weed control at 100 µM: read-out: Percent Growth Inhibition
Description: Candidate insecticides were incorporated into an artificial diet for evaluation of insecticidal activity against the tobacco budworm (Heliothis virescens [Fabricius]) in the following manner. Stock solutions of test chemical in dimethyl sulfoxide, ranging from […], were prepared for each rate of application. One hundred microliters of each of the stock solutions was manually stirred into 50 mL of a molten (65-70°C) wheat germ-based artificial diet. The 50 mL of molten diet containing the test chemical was poured evenly into twenty wells in the outer two rows on each side of a twenty-five well, five row plastic tray. (Each well in the tray was about 1 cm in depth, with an opening of 3 cm by 4 cm at the lip.) Molten diet containing only dimethyl sulfoxide at the levels used in the test chemical-treated diet was poured into the five wells in the third (center) row of the tray. Each tray therefore contained one test chemical at a single rate of application, together with an untreated control. The rates of application, expressed as the negative log of the molar concentration, and the corresponding concentrations of the stock solution prepared for each rate are shown below:
Single second instar tobacco budworm larvae, selected at a stage of growth at which they uniformly weigh about 5 mg each, were placed in each well. Upon completion of infestation, a sheet of clear plastic was heat-sealed over the top of the tray by use of a common household flat.iron. The trays were held at 25°C at 60% relative humidity for five days in a growth chamber. Lighting was set at 14 hours of light and 10 hours of darkness. After the 5-day exposure period, mortality counts were taken, and the surviving insects were weighed. From the weights of the surviving insects that fed on the treated diet as compared to those insects that fed on the untreated diet, the percent growth inhibition caused by each test chemical was determined. […] Also, where possible, the negative log of the concentration of the test chemical that provided 50% mortality (pLC50) was determined.

Structure (SMILES)	IC50 [µM]	LC50 [µM]	mortality at 100 µM [%]	pest or weed control at 100 µM [%]	Percent Growth Inhibition [%]
COc1ccc(CCN2CCC(C(O)(c3ccc(OC(F)(F)F)cc3)c3ccc(OC(F)(F)F)cc3)CC2)cc1 [Compound 2, N-[2-(4-methoxyphenyl)ethyl]-4-[bis(4-trifluoromethoxyphenyl)hydroxymethyl]piperidine]	2.51	> 100	25	98	–
CC(=O)Nc1ccc(CN2CCC(C(O)(c3ccc(OC(F)(F)F)cc3)c3ccc(OC(F)(F)F)cc3)CC2)cc1 [Compound 3, N-[4-(methylcarbonylamino)phenylmethyl]-4-[bis(4-trifluoromethoxyphenyl)hydroxymethyl]piperidine]	20	–	0	95	–
Cn1ccc(-c2ccc(CN3CCC(C(O)(c4ccc(OC(F)(F)F)cc4)c4ccc(OC(F)(F)F)cc4)CC3)cc2)c1 [Compound 4]	–	–	100	–	–
Cc1cc(C)n(-c2ccc(CN3CCC(C(O)(c4ccc(OC(F)(F)F)cc4)c4ccc(OC(F)(F)F)cc4)CC3)cc2)n1 [Compound 5]	–	–	100	–	–
Cc1noc(-c2ccc(CN3CCC(C(O)(c4ccc(OC(F)(F)F)cc4)c4ccc(OC(F)(F)F)cc4)CC3)cc2)n1 [Compound 6]	–	–	100	–	–
Cn1nnnc1-c1ccc(CN2CCC(C(O)(c3ccc(OC(F)(F)F)cc3)c3ccc(OC(F)(F)F)cc3)CC2)cc1 [Compound 8, N-[4-(1-methyltetrazol-5-yl)phenylmethyl]-4-[bis(4-trifluoromethoxyphenyl)hydroxymethyl]piperidine]	31.6	–	0	79	–
Cn1ncn(-c2ccc(CN3CCC(C(O)(c4ccc(C(F)(F)F)cc4)c4ccc(C(F)(F)F)cc4)CC3)cc2)c1=O [Compound 12, N-[4-(4,5-dihydro-1-methyl-5-oxo-1H-1,2,4-triazol-4-yl)phenylmethyl]-4-[bis(4-trifluoromethylphenyl)hydroxymethyl]piperidine]	3.98	> 100	35	98	–
OC(c1ccc(OC(F)(F)F)cc1)(c1ccc(OC(F)(F)F)cc1)C1CCN(Cc2ccc(-c3csnn3)cc2)CC1 [Compound 14]	3.16	31.6	100	–	99
Cn1nnc(-c2ccc(C[N+]3([O-])CCC(C(O)(c4ccc(OC(F)(F)F)cc4)c4ccc(OC(F)(F)F)cc4)CC3)cc2)n1 (stereo not drawn) [Compound 15]	–	–	100	–	–
CC(C)c1cnc(-c2ccc(CN3CCC(C(O)(c4ccc(C(F)(F)F)cc4)c4ccc(C(F)(F)F)cc4)CC3)cc2)o1 [Compound 19]	–	–	90	–	–
O=C1OCCN1c1ccc(CN2CCC(C(O)(c3ccc(C(F)(F)F)cc3)c3ccc(C(F)(F)F)cc3)CC2)cc1 [Compound 20]	–	–	10	–	–
O=C1OCCN1c1ccc(C[N+]2([O-])CCC(C(O)(c3ccc(C(F)(F)F)cc3)c3ccc(C(F)(F)F)cc3)CC2)cc1 (stereo not drawn) [Compound 21]	–	–	10	–	–
CC1CN(c2ccc(CN3CCC(C(O)(c4ccc(C(F)(F)F)cc4)c4ccc(C(F)(F)F)cc4)CC3)cc2)C(=O)O1 (stereo not drawn) [Compound 22]	–	–	35	–	–
CC1CN(c2ccc(C[N+]3([O-])CCC(C(O)(c4ccc(C(F)(F)F)cc4)c4ccc(C(F)(F)F)cc4)CC3)cc2)C(=O)O1 (stereo not drawn) [Compound 23]	–	–	65	–	–
CC1CN(C(=O)c2ccc(CN3CCC(C(O)(c4ccc(C(F)(F)F)cc4)c4ccc(C(F)(F)F)cc4)CC3)cc2)C(=O)O1 (stereo not drawn) [Compound 24]	31.6	> 316	0	–	86
Cn1cnc(-c2ccc(CN3CCC(C(O)(c4ccc(C(F)(F)F)cc4)c4ccc(C(F)(F)F)cc4)CC3)cc2)n1 [Compound 27]	–	–	100	–	–
Cn1cnc(-c2ccc(C[N+]3([O-])CCC(C(O)(c4ccc(C(F)(F)F)cc4)c4ccc(C(F)(F)F)cc4)CC3)cc2)n1 (stereo not drawn) [Compound 28]	–	–	100	–	–
OC(c1ccc(C(F)(F)F)cc1)(c1ccc(C(F)(F)F)cc1)C1CCN(Cc2ccc(Oc3nsnc3Cl)cc2)CC1 [Compound 29]	–	–	60	–	–
[O-][N+]1(Cc2ccc(Oc3nsnc3Cl)cc2)CCC(C(O)(c2ccc(C(F)(F)F)cc2)c2ccc(C(F)(F)F)cc2)CC1 (stereo not drawn) [Compound 30]	–	–	40	–	–
CC(C)n1nnc(-c2ccc(CN3CCC(C(O)(c4ccc(C(F)(F)F)cc4)c4ccc(C(F)(F)F)cc4)CC3)cc2)n1 [Compound 35]	–	–	100	–	–
CC(C)n1nnc(-c2ccc(C[N+]3([O-])CCC(C(O)(c4ccc(C(F)(F)F)cc4)c4ccc(C(F)(F)F)cc4)CC3)cc2)n1 (stereo not drawn) [Compound 36]	–	–	100	–	–

Structure (SMILES)	IC50 [µM]	LC50 [µM]	mortality at 100 µM [%]	pest or weed control at 100 µM [%]	Percent Growth Inhibition [%]
CC(C)(C)n1nnc(-c2ccc(CN3CCC(C(O)(c4ccc(C(F)(F)F)cc4)c4ccc(C(F)(F)F)cc4)CC3)cc2)n1 [Compound 37]	–	–	100	–	–
OC(c1ccc(C(F)(F)F)cc1)(c1ccc(C(F)(F)F)cc1)C1CCN(Cc2ccc(-c3nnn(C(F)F)n3)cc2)CC1 [Compound 38]	0.631	2.51	100	–	100
[O-][N+]1(Cc2ccc(-c3nnn(C(F)F)n3)cc2)CCC(C(O)(c2ccc(C(F)(F)F)cc2)c2ccc(C(F)(F)F)cc2)CC1 (stereo not drawn) [Compound 39]	–	–	100	–	–
OC(c1ccc(C(F)(F)F)cc1)(c1ccc(C(F)(F)F)cc1)C1CCN(Cc2ccc(-c3nnn(CCCF)n3)cc2)CC1 [Compound 40]	0.631	3.98	100	–	100
COCn1nnc(-c2ccc(CN3CCC(C(O)(c4ccc(C(F)(F)F)cc4)c4ccc(C(F)(F)F)cc4)CC3)cc2)n1 [Compound 41]	–	–	100	–	–
COCn1nnc(-c2ccc(C[N+]3([O-])CCC(C(O)(c4ccc(C(F)(F)F)cc4)c4ccc(C(F)(F)F)cc4)CC3)cc2)n1 (stereo not drawn) [Compound 42]	–	–	100	–	–
OC(c1ccc(C(F)(F)F)cc1)(c1ccc(C(F)(F)F)cc1)C1CCN(Cc2ccc(-c3ccccn3)cc2)CC1 [Compound 43]	≤ 0.316	3.16	100	–	100
[O-][N+]1(Cc2ccc(-c3ccccn3)cc2)CCC(C(O)(c2ccc(C(F)(F)F)cc2)c2ccc(C(F)(F)F)cc2)CC1 (stereo not drawn) [Compound 44]	–	–	100	–	–
[O-][n+]1ccccc1-c1ccc(CN2CCC(C(O)(c3ccc(C(F)(F)F)cc3)c3ccc(C(F)(F)F)cc3)CC2)cc1 [Compound 45]	–	–	100	–	–
[O-][n+]1ccccc1-c1ccc(C[N+]2([O-])CCC(C(O)(c3ccc(C(F)(F)F)cc3)c3ccc(C(F)(F)F)cc3)CC2)cc1 (stereo not drawn) [Compound 46]	–	–	100	–	–
OC(c1ccc(C(F)(F)F)cc1)(c1ccc(C(F)(F)F)cc1)C1CCN(Cc2ccc(-c3ccc(Cl)cn3)cc2)CC1 [Compound 47]	31.6	31.6	100	–	100
[O-][N+]1(Cc2ccc(-c3ccc(Cl)cn3)cc2)CCC(C(O)(c2ccc(C(F)(F)F)cc2)c2ccc(C(F)(F)F)cc2)CC1 (stereo not drawn) [Compound 48]	–	–	85	–	–
Cc1cccc(-c2ccc(CN3CCC(C(O)(c4ccc(C(F)(F)F)cc4)c4ccc(C(F)(F)F)cc4)CC3)cc2)n1 [Compound 49]	–	–	100	–	–
Cc1cccc(-c2ccc(C[N+]3([O-])CCC(C(O)(c4ccc(C(F)(F)F)cc4)c4ccc(C(F)(F)F)cc4)CC3)cc2)n1 (stereo not drawn) [Compound 50]	–	–	100	–	–
Cc1ccc(-c2ccc(CN3CCC(C(O)(c4ccc(C(F)(F)F)cc4)c4ccc(C(F)(F)F)cc4)CC3)cc2)nc1 [Compound 51]	–	–	100	–	–
OC(c1ccc(C(F)(F)F)cc1)(c1ccc(C(F)(F)F)cc1)C1CCN(Cc2ccc(Oc3ccccn3)cc2)CC1 [Compound 53]	–	–	100	–	–
[O-][N+]1(Cc2ccc(Oc3ccccn3)cc2)CCC(C(O)(c2ccc(C(F)(F)F)cc2)c2ccc(C(F)(F)F)cc2)CC1 (stereo not drawn) [Compound 54]	–	–	100	–	–
[O-][n+]1ccccc1Oc1ccc(CN2CCC(C(O)(c3ccc(C(F)(F)F)cc3)c3ccc(C(F)(F)F)cc3)CC2)cc1 [Compound 55]	3.16	79.4	55	–	100
[O-][n+]1ccccc1Oc1ccc(C[N+]2([O-])CCC(C(O)(c3ccc(C(F)(F)F)cc3)c3ccc(C(F)(F)F)cc3)CC2)cc1 (stereo not drawn) [Compound 56]	–	–	100	–	–
Cc1cccnc1Oc1ccc(CN2CCC(C(O)(c3ccc(C(F)(F)F)cc3)c3ccc(C(F)(F)F)cc3)CC2)cc1 [Compound 57]	0.794	7.94	100	–	100
